Measurements taken from patent US20110039721A1, “METHOD FOR PREDICTION ABOUT CARCINOGENICITY OF SUBSTANCE IN RODENT” (Chemicals Evaluation and Research Institute, priority 2007, published 2011).

Legend:
rodent = details: in vivo; cited from earlier work
liver = details: in vivo; cited from earlier work
[1] = system: mRNA expressed from the genes (A) to (D) in rat liver; assay: Behavior of genes (mRNA expression level, oligo-DNA microarray) in rat liver after 28-day oral administration; format: in vivo
How it was run: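 Oral gavage, once daily × 28 days; male F344 SPF rats, 5 wk, n=4/group; vehicle controls given equal solvent volume. Liver excised day 28, total RNA purified. Significance: ≥1.5× or ≤1/1.5 of vehicle, direction concordant with other carcinogens.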

[2] = gene group (A), Unigene No. Rn.167075, mRNA vs vehicle control group
[3] = gene group (C), Unigene No. Rn.120914, mRNA vs vehicle control group
[4] = (C), Unigene Rn.120914, defined direction +, rat liver, oral once daily 28 days

Cc1c(N)cccc1N [TS005, 2,6-Diaminotoluene]
Carcinogenicity (rodent): C− | Liver carcinogenicity (liver): Cr− | Behavior of gene caused by administration of chemical substance, Gene No. 4846 ([1]; gene group (A), Unigene No. Rn.144554, mRNA vs vehicle control group): − | Behavior of gene caused by administration of chemical substance, Gene No. 2026 [1, 2]: − | Behavior of gene caused by administration of chemical substance, Gene No. 4218 [1, 2]: − | Behavior of gene caused by administration of chemical substance, Gene No. 6182 ([1]; gene group (A), Unigene No. Rn.5834, mRNA vs vehicle control group): − | Behavior of gene caused by administration of chemical substance, Gene No. 5600 ([1]; gene group (A), Unigene No. Rn.9836, mRNA vs vehicle control group): − | Behavior of gene caused by administration of chemical substance, Gene No. 1494 ([1]; gene group (B), Unigene No. Rn.1430, mRNA vs vehicle control group): − | Behavior of gene caused by administration of chemical substance, Gene No. 2045 ([1]; gene group (B), Unigene No. Rn.19329, mRNA vs vehicle control group): − | Behavior of gene caused by administration of chemical substance, Gene No. 2203 ([1]; gene group (B), Unigene No. Rn.21240, mRNA vs vehicle control group): − | Behavior of gene caused by administration of chemical substance, Gene No. 533 ([1]; gene group (C), Unigene No. Rn.106184, mRNA vs vehicle control group): − | Behavior of gene caused by administration of chemical substance, Gene No. 725 ([1]; gene group (C), Unigene No. Rn.108075, mRNA vs vehicle control group): − | Behavior of gene caused by administration of chemical substance, Gene No. 1163 ([1]; gene group (C), Unigene No. Rn.11766, mRNA vs vehicle control group): − | Behavior of gene caused by administration of chemical substance, Gene No. 4973 ([1]; gene group (C), Unigene No. Rn.118529, mRNA vs vehicle control group): − | Behavior of gene caused by administration of chemical substance, Gene No. 4095 ([1]; gene group (C), Unigene No. Rn.119024, mRNA vs vehicle control group): − | Behavior of gene caused by administration of chemical substance, Gene No. 1334 [1, 3]: − | Behavior of gene caused by administration of chemical substance, Gene No. 6620 [1, 3]: − | Behavior of gene caused by administration of chemical substance, Gene No. 6303 ([1]; gene group (C), Unigene No. Rn.123063, mRNA vs vehicle control group): − | Behavior of gene caused by administration of chemical substance, Gene No. 5878 ([1]; gene group (C), Unigene No. Rn.143213, mRNA vs vehicle control group): − | Behavior of gene caused by administration of chemical substance, Gene No. 1131 ([1]; gene group (C), Unigene No. Rn.144946, mRNA vs vehicle control group): + | Behavior of gene caused by administration of chemical substance, Gene No. 1562 ([1]; gene group (C), Unigene No. Rn.14744, mRNA vs vehicle control group): − | Behavior of gene caused by administration of chemical substance, Gene No. 1741 ([1]; gene group (C), Unigene No. Rn.1647, mRNA vs vehicle control group): − | Behavior of gene caused by administration of chemical substance, Gene No. 893 ([1]; gene group (C), Unigene No. Rn.164817, mRNA vs vehicle control group): − | Behavior of gene caused by administration of chemical substance, Gene No. 6026 ([1]; gene group (C), Unigene No. Rn.167685, mRNA vs vehicle control group): − | Behavior of gene caused by administration of chemical substance, Gene No. 154 ([1]; gene group (C), Unigene No. Rn.185941, mRNA vs vehicle control group): − | Behavior of gene caused by administration of chemical substance, Gene No. 1993 ([1]; gene group (C), Unigene No. Rn.18728, mRNA vs vehicle control group): − | Behavior of gene caused by administration of chemical substance, Gene No. 813 ([1]; gene group (C), Unigene No. Rn.201760, mRNA vs vehicle control group): − | Behavior of gene caused by administration of chemical substance, Gene No. 2494 ([1]; gene group (C), Unigene No. Rn.23969, mRNA vs vehicle control group): − | Behavior of gene caused by administration of chemical substance, Gene No. 2546 ([1]; gene group (C), Unigene No. Rn.24561, mRNA vs vehicle control group): − | Behavior of gene caused by administration of chemical substance, Gene No. 3776 ([1]; gene group (C), Unigene No. Rn.43232, mRNA vs vehicle control group): − | Behavior of gene caused by administration of chemical substance, Gene No. 3929 ([1]; gene group (C), Unigene No. Rn.4620, mRNA vs vehicle control group): − | Behavior of gene caused by administration of chemical substance, Gene No. 1119 ([1]; gene group (C), Unigene No. Rn.9757, mRNA vs vehicle control group): − | Behavior of gene caused by administration of chemical substance, Gene No. 6742 ([1]; gene group (C), Unigene No. Rn.9779, mRNA vs vehicle control group): − | Behavior of gene caused by administration of chemical substance, Gene No. 5634 ([1]; gene group (C), Unigene No. Rn.9862, mRNA vs vehicle control group): − | Behavior of gene caused by administration of chemical substance, Gene No. 5726 ([1]; gene group (D), Unigene No. Rn.9939, mRNA vs vehicle control group): −

c1ccc2ncccc2c1 [TS006, Quinoline]
Carcinogenicity (rodent): C+ | Liver carcinogenicity (liver): Cr+ | Behavior of gene caused by administration of chemical substance, Gene No. 4846 ([1]; (A), Unigene Rn.144554, defined direction +, rat liver, oral once daily 28 days): + | Behavior of gene caused by administration of chemical substance, Gene No. 4218 ([1]; (A), Unigene Rn.167075, defined direction +, rat liver, oral once daily 28 days, significant = 1.5 times or more or 1/1.5 or less of control): − | Behavior of gene caused by administration of chemical substance, Gene No. 2026 ([1]; (A), Unigene Rn.167075, defined direction −, rat liver, oral once daily 28 days): + | Behavior of gene caused by administration of chemical substance, Gene No. 6182 ([1]; (A), Unigene Rn.5834, defined direction +, rat liver, oral once daily 28 days): − | Behavior of gene caused by administration of chemical substance, Gene No. 5600 ([1]; (A), Unigene Rn.9836, defined direction +, rat liver, oral once daily 28 days): − | Behavior of gene caused by administration of chemical substance, Gene No. 1494 ([1]; (B), Unigene Rn.1430, defined direction −, rat liver, oral once daily 28 days): + | Behavior of gene caused by administration of chemical substance, Gene No. 2045 ([1]; (B), Unigene Rn.19329, defined direction +, rat liver, oral once daily 28 days): − | Behavior of gene caused by administration of chemical substance, Gene No. 2203 ([1]; (B), Unigene Rn.21240, defined direction +, rat liver, oral once daily 28 days): − | Behavior of gene caused by administration of chemical substance, Gene No. 533 ([1]; (C), Unigene Rn.106184, defined direction +, rat liver, oral once daily 28 days): − | Behavior of gene caused by administration of chemical substance, Gene No. 725 ([1]; (C), Unigene Rn.108075, defined direction −, rat liver, oral once daily 28 days): − | Behavior of gene caused by administration of chemical substance, Gene No. 1163 ([1]; (C), Unigene Rn.11766, defined direction +, rat liver, oral once daily 28 days): − | Behavior of gene caused by administration of chemical substance, Gene No. 4973 ([1]; (C), Unigene Rn.118529, defined direction −, rat liver, oral once daily 28 days): − | Behavior of gene caused by administration of chemical substance, Gene No. 4095 ([1]; (C), Unigene Rn.119024, defined direction −, rat liver, oral once daily 28 days): − | Behavior of gene caused by administration of chemical substance, Gene No. 1334 [1, 4]: − | Behavior of gene caused by administration of chemical substance, Gene No. 6620 [1, 4]: − | Behavior of gene caused by administration of chemical substance, Gene No. 6303 ([1]; (C), Unigene Rn.123063, defined direction −, rat liver, oral once daily 28 days): − | Behavior of gene caused by administration of chemical substance, Gene No. 5878 ([1]; (C), Unigene Rn.143213, defined direction −, rat liver, oral once daily 28 days): − | Behavior of gene caused by administration of chemical substance, Gene No. 1131 ([1]; (C), Unigene Rn.144946, defined direction −, rat liver, oral once daily 28 days): − | Behavior of gene caused by administration of chemical substance, Gene No. 1562 ([1]; (C), Unigene Rn.14744, defined direction −, rat liver, oral once daily 28 days): − | Behavior of gene caused by administration of chemical substance, Gene No. 1741 ([1]; (C), Unigene Rn.1647, defined direction −, rat liver, oral once daily 28 days): − | Behavior of gene caused by administration of chemical substance, Gene No. 893 ([1]; (C), Unigene Rn.164817, defined direction +, rat liver, oral once daily 28 days): − | Behavior of gene caused by administration of chemical substance, Gene No. 6026 ([1]; (C), Unigene Rn.167685, defined direction −, rat liver, oral once daily 28 days): − | Behavior of gene caused by administration of chemical substance, Gene No. 154 ([1]; (C), Unigene Rn.185941, defined direction −, rat liver, oral once daily 28 days): − | Behavior of gene caused by administration of chemical substance, Gene No. 1993 ([1]; (C), Unigene Rn.18728, defined direction −, rat liver, oral once daily 28 days): − | Behavior of gene caused by administration of chemical substance, Gene No. 813 ([1]; (C), Unigene Rn.201760, defined direction +, rat liver, oral once daily 28 days): + | Behavior of gene caused by administration of chemical substance, Gene No. 2494 ([1]; (C), Unigene Rn.23969, defined direction +, rat liver, oral once daily 28 days): − | Behavior of gene caused by administration of chemical substance, Gene No. 2546 ([1]; (C), Unigene Rn.24561, defined direction −, rat liver, oral once daily 28 days): − | Behavior of gene caused by administration of chemical substance, Gene No. 3776 ([1]; (C), Unigene Rn.43232, defined direction −, rat liver, oral once daily 28 days): − | Behavior of gene caused by administration of chemical substance, Gene No. 3929 ([1]; (C), Unigene Rn.4620, defined direction +, rat liver, oral once daily 28 days): − | Behavior of gene caused by administration of chemical substance, Gene No. 1119 ([1]; (C), Unigene Rn.9757, defined direction +, rat liver, oral once daily 28 days): − | Behavior of gene caused by administration of chemical substance, Gene No. 6742 ([1]; (C), Unigene Rn.9779, defined direction +, rat liver, oral once daily 28 days): − | Behavior of gene caused by administration of chemical substance, Gene No. 5634 ([1]; (C), Unigene Rn.9862, defined direction −, rat liver, oral once daily 28 days): − | Behavior of gene caused by administration of chemical substance, Gene No. 5726 ([1]; (D), Unigene Rn.9939, defined direction −, rat liver, oral once daily 28 days): −
